This note sets out measurements from US20220389009A1, “SUBSTITUTED 1,6-NAPHTHYRIDINE INHIBITORS OF CDK5” (Goldfinch Bio, Inc., priority 2019, published 2022).

Each structure is given as a SMILES string.

The target of one experiment is CDK2/CycA2 (Homo sapiens, UniProt P24941). Nature of the experiment: CDK2 mobility shift assay (enzymatic activity of CDK2/CycA2). It counts as biochemical. As to conditions: 1.25 nM CDK2/CycA2, 37 μM ATP, FL Peptide 18, 120 min at room temperature; read-out: CDK2 IC50. In a few lines:
(§1)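 Phosphorylation of 1.5 μM fluorescent peptide was read by microfluidic mobility shift and fitted to IC50 (4-parameter), normalized to no-compound and no-enzyme controls. CDK5/p25 ran at 0.154 nM with […] ATP for 60 min, using peptide 29. CDK2/CycA2 ran at 1.25 nM with 37 μM ATP for 120 min, using peptide 18. Both included a 30-min compound preincubation in pH 7.5 buffer.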

The target of a further experiment is CDK5/p25 (Homo sapiens, UniProt Q00535). Briefly: CDK5 mobility shift assay (enzymatic activity of CDK5/p25). It is filed as biochemical. Conditions: for IC50: 0.154 nM CDK5/p25, FL peptide 29, 60 min at room temperature, read-out: CDK5 IC50; for CDK5/CDK2 specificity: fold more active against CDK5 than CDK2. In a few lines:
as §1

CDK5/p25, sequence (Q00535 whole entry): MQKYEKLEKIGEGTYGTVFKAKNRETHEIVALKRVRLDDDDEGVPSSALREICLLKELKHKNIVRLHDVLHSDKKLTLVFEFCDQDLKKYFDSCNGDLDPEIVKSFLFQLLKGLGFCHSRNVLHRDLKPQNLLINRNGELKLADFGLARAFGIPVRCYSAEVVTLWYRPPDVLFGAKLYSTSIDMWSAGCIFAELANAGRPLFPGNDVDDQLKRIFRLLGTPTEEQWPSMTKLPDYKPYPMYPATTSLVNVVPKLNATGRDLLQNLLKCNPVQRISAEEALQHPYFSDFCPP
CDK5/p25, sequence (Q15078 99-307 partner limits assumed): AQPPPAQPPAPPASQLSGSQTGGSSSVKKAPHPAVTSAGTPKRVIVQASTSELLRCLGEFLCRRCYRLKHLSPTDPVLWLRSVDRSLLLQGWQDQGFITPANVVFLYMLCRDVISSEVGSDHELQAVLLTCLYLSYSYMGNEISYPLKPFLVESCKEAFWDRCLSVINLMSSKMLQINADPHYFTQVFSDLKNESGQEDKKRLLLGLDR

The term IC50 denotes the concentration needed to halve the response being measured. Consider `CN1CCC(C(O)c2ccc3cnc(Nc4ccc(-n5ccc(CO)n5)cc4F)cc3n2)CC1` (single isomer, unassigned) [Compound 254, [7-([2-fluoro-4-[3-(hydroxymethyl)pyrazol-1-yl]phenyl]amino)-1,6-naphthyridin-2-yl](1-methylpiperidin-4-yl)methanol], for which the IC50 was 100 to 1000 nM at CDK2/CycA2 and less than 10 nM at CDK5/p25. Further, the CDK5/CDK2 specificity result on CDK5/p25 is listed as “+++ (greater than 100-fold more active against CDK5 than CDK2)”.
In the same order, the values of `Cc1cc(C)cc(Nc2cc3nc(S(=O)(=O)C4CCN(C)CC4)ccc3cn2)c1` [Compound 260] are 100 to 1000 nM, less than 10 nM and “+++ (greater than 100-fold more active against CDK5 than CDK2)”.
With `CN1CCC(/C(=N/O)c2ccc3cnc(Nc4ccc(-n5cccn5)cc4F)cc3n2)CC1` [Compound 381], on CDK2/CycA2, the half-inhibitory concentration (IC50) was 100 to 1000 nM. In addition, at CDK5/p25, the half-maximal inhibitory concentration (IC50) fell in the range of 10 to 100 nM and the CDK5/CDK2 specificity result was “+ (10-fold or less more active against CDK5 than CDK2)”.
`NC1CCCN(C(=O)c2ccc3cnc(Nc4ccc(-n5cccn5)cc4F)cc3n2)C1` (stereo not drawn) [Compound 242, 2-(3-aminopiperidine-1-carbonyl)-N-[2-fluoro-4-(pyrazol-1-yl)phenyl]-1,6-naphthyridin-7-amine]: the figures for the 50% inhibitory concentration (IC50) on CDK2/CycA2 and at CDK5/p25 were greater than 1000 nM and 100 to 1000 nM, respectively. In addition, the CDK5/CDK2 specificity result at CDK5/p25 is “++ (greater than 10-fold and less than or equal to 100-fold more active against CDK5 than CDK2)”.
Turning to `CN1CCC(C(O)(c2ccc3cnc(Nc4ccc(-n5cccn5)cc4F)cc3n2)C(F)(F)F)CC1` (single isomer, unassigned) [Compound 349, 2,2,2-trifluoro-1-(7-((2-fluoro-4-(1H-pyrazol-1-yl)phenyl)amino)-1,6-naphthyridin-2-yl)-1-(1-methylpiperidin-4-yl)ethan-1-ol], the half-maximal inhibitory concentration (IC50) at CDK2/CycA2 lay within 10 to 100 nM. Moreover, on CDK5/p25, the concentration for half-maximal inhibition (IC50) is less than 10 nM; the CDK5/CDK2 specificity result was “++ (greater than 10-fold and less than or equal to 100-fold more active against CDK5 than CDK2)”.
In the case of `COc1cc(-c2ccc(Nc3cc4nc(C(C)(O)C5CCN(C)CC5)ccc4cn3)c(F)c2)ccn1` (stereo not drawn) [Compound 330], the IC50 on CDK2/CycA2 and on CDK5/p25 was greater than 1000 nM in each case. The CDK5/CDK2 specificity result on CDK5/p25 was “++ (greater than 10-fold and less than or equal to 100-fold more active against CDK5 than CDK2)”.
Consider `CN1CCC(S(=O)(=O)c2ccc3cnc(Nc4cccc(N5CCCC5=O)c4)cc3n2)CC1` [Compound 281], for which, on CDK2/CycA2, the half-inhibitory concentration (IC50) lay in the range of 100 to 1000 nM. For the same compound, on CDK5/p25, the 50% inhibitory concentration (IC50) is less than 10 nM; the CDK5/CDK2 specificity entry is “++ (greater than 10-fold and less than or equal to 100-fold more active against CDK5 than CDK2)”.
Turning to `CN1CCC(S(=O)(=O)c2ccc3cnc(Nc4ccc(N5CCNC(=O)C5)cc4)cc3n2)CC1` [Compound 305], the IC50 at CDK2/CycA2 was 10 to 100 nM; at CDK5/p25, less than 10 nM. In addition, the CDK5/CDK2 specificity result at CDK5/p25 is “++ (greater than 10-fold and less than or equal to 100-fold more active against CDK5 than CDK2)”.
`O=C(O)[C@H]1CNCC[C@@H]1Nc1ccc2cnc(Nc3ccc(-n4ccc(CO)n4)cc3F)cc2n1` [Compound 116, (3S,4S)-4-[[7-([2-fluoro-4-[3-(hydroxymethyl)pyrazol-1-yl]phenyl]amino)-1,6-naphthyridin-2-yl]amino]piperidine-3-carboxylic acid]: the IC50 on CDK2/CycA2 is greater than 1000 nM. Moreover, at CDK5/p25, the IC50 lay within 100 to 1000 nM and the CDK5/CDK2 specificity entry is recorded as “+ (10-fold or less more active against CDK5 than CDK2)”.
As to `O=C(O)[C@@H]1CNCC[C@H]1Nc1ccc2cnc(Nc3ccc(-n4ccc(CO)n4)cc3F)cc2n1` [Compound 114, (3R,4R)-4-[[7-([2-fluoro-4-[3-(hydroxymethyl)pyrazol-1-yl]phenyl]amino)-1,6-naphthyridin-2-yl]amino]piperidine-3-carboxylic acid], the IC50 on CDK2/CycA2 and on CDK5/p25 was greater than 1000 nM each time. For the same compound, the CDK5/CDK2 specificity result on CDK5/p25 was “+ (10-fold or less more active against CDK5 than CDK2)”.
